Source: patent US4348410A, “Cyclohexane carboxylic acid derivatives” (Nippon Chemiphar Co., Ltd., priority 1979, dated 1982)
Where a name gives a salt, the structure may show the parent alone.

Legend:
trypsin = molecular target: T1, trypsin (Bos taurus, UniProt P00760); assay: Inhibitory effects on trypsin (hydrolysis of p-tosylarginine methyl ester); assay type: biochemical; settings: for Inhibition (%) Trypsin: 37° C., 10 minutes, concentration not given
T1 sequence (P00760 24-246): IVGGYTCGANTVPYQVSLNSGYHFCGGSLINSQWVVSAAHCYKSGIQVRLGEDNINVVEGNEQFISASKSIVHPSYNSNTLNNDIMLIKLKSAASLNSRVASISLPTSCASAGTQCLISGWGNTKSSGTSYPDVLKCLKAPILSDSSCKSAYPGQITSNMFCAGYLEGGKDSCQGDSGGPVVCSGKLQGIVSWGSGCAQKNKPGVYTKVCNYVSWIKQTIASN
Experimental: In particular, inhibitory effects of the compounds on hydrolysis of p-tosylarginine methyl ester by trypsin were examined (incubated at 37° C. for 10 minutes).

chymotrypsin = chymotrypsin (Bos taurus, UniProt P00766); assay: Inhibitory effects on chymotrypsin (hydrolysis of N-acetyl-L-tyrosine ethyl ester); assay type: biochemical; settings: for Inhibition (%) Chymotrypsin: 37° C., 10 minutes, concentration not given
Experimental: The compounds of the formula (I) have excellent inhibitory effects on protease. The inhibitory effects were determined by the following methods: Inhibitory effects on the compounds of chymotrypsin were determined according to the method described by M. […] In particular, inhibitory effects of the compounds on hydrolysis of N-acetyl-L-tyrosine ethyl ester by chymotrypsin were examined (incubated at 37° C. for 10 minutes).

thrombin = thrombin (Bos taurus, UniProt P00735); assay: Inhibitory effects on thrombin (hydrolysis of p-tosylarginine methyl ester); assay type: biochemical; settings: for Inhibition (%) Thrombin: 37° C., 10 minutes, concentration not given
Experimental: The compounds of the formula (I) have excellent inhibitory effects on protease. The inhibitory effects were determined by the following methods:
Inhibitory effects of the compounds on thrombin were determined according to the method described by M. Muramatsu et al (The Journal of Biochemistry, Volume 65 (1), 17 (1969)). In particular, inhibitory effects of the compounds on hydrolysis of p-tosylarginine methyl ester by thrombin were examined (incubated at 37° C. for 10 minutes).

urokinase = urokinase (Homo sapiens, UniProt P00749); assay: Inhibitory effects on urokinase (hydrolysis of N-acetylglycyl lysine methyl ester); assay type: biochemical; settings: for Inhibition (%) Urokinase: 37° C., 10 minutes, concentration not given; for inhibition at 100 µM: 0.1 mM, read-out: inhibited hydrolytic activity by urokinase
Experimental: The compounds of the formula (I) have excellent inhibitory effects on protease. The inhibitory effects were determined by the following methods: Inhibitory effects of the compounds on urokinase were determined according to the method described by A. J. Joeson et al (Throm. […]. 21, 259-272 (1969)). In particular, inhibitory effects of the compounds on hydrolysis of N-acetylglycyl lysine methyl ester by urokinase were determined (incubated at 37° C. for 10 minutes).

acetic acid ulcers = assay: Acetic acid ulcers; assay type: in vivo, Male Sprague-Dawley strain rats; settings: for Ulcer Grade 1 (number of rats): ulcer area 0-10 mm^2; for Ulcer Grade 2 (number of rats): ulcer area 11-20 mm^2; for Ulcer Grade 3 (number of rats): ulcer area 21-30 mm^2; for Ulcer Grade 4 (number of rats): ulcer area 31-40 mm^2; for Ulcer Grade 5 (number of rats): ulcer area >40 mm^2
Experimental: Male Sprague-Dawley strain rats, weighing about 200 g were used. Under ether anesthesia 10% acetic acid solution (0.05 ml) was injected carefully between the serous membrane and the muscle near the pylorus, and the abdomen was closed. Thereafter, the animals were maintained under conditions and administered 1 ml/100 g of each test drug dissolved or suspended in 0.5% carboxymethylcellulose solution p.o. daily×10 starting from the next day of the operation. On the 11th day, the rats were sacrificed under ether anesthesia, and the stomachs were removed. The area of the ulcer was measured and graded into 5 degrees as an ulcer index according to the following method: […]

Shay ulcers = Shay ulcers (pylorus ligation); assay type: in vivo, Male Sprague-Dawley strain rats; settings: for Ulcer Grade 0 (number of rats): 0=no lesion; for Ulcer Grade 1 (number of rats): 1=hemorrhagic suffusion; for Ulcer Grade 2 (number of rats): 2=1-5 small ulcers (<3 mm); for Ulcer Grade 3 (number of rats): 3=many small ulcers (more than 5) or 1 ulcer of marked size; for Ulcer Grade 4 (number of rats): 4=many ulcers of marked size; for Ulcer Grade 5 (number of rats): 5=perforated ulcer
Experimental: The rats were sacrificed 18 hours later by an overdose of ether and the stomach removed. The stomach was incised along the greater curvature and the surface area of each lesion in forestomach was measured by the naked eye. […] 4=many ulcers of marked size 5=perforated ulcer The test drugs were given intraperitoneally, immediately after pylorus ligation.

gastric secretion = assay: Influence to the gastric secretion (pylorus ligation); assay type: in vivo, Male Sprague-Dawley strain rats; settings: 12.5 mg/kg i.p.
Experimental: Male Sprague-Dawley strain rats, weighing 160-180 g were deprived of food but allowed free access to water for 20 hours prior to experiment. […] The test drug was given intraperitoneally immediately after pylorus ligation. The rats were sacrificed 3, 6 and 12 hours later and the stomachs removed. The gastric juice was collected and analyzed for volume. Then the gastric juice was centrifuged at 1300 g for 10 minutes at room temperature to give the supernatant. The total acidity and peptic activity of the supernatant were determined. Total acidity was determined by titrating with 0.01 N NaOH. […] Total acidity is shown as the titration volume (ml) and peptic activity is shown as the corresponding weight (mg) to crystal pepsin.

COc1cc(C=O)ccc1OC(=O)[C@H]1CC[C@H](CNC(=N)N)CC1 [Compound 2]
Inhibition (%) Trypsin (trypsin): 61% | Inhibition (%) Chymotrypsin (chymotrypsin): 100% | Inhibition (%) Thrombin (thrombin): 51% | Inhibition (%) Urokinase (urokinase): 72% | Ulcer Grade 1 (number of rats) (acetic acid ulcers; 125 mg/kg p.o. daily×10): 9 | Ulcer Grade 2 (number of rats) (acetic acid ulcers; 125 mg/kg p.o. daily×10): 1 | Ulcer Grade 3 (number of rats) (acetic acid ulcers; 125 mg/kg p.o. daily×10): 2 | Ulcer Grade 4 (number of rats) (acetic acid ulcers; 125 mg/kg p.o. daily×10): 2 | Ulcer Grade 5 (number of rats) (acetic acid ulcers; 125 mg/kg p.o. daily×10): 1 | Ulcer Grade 1 (number of rats) (acetic acid ulcers; 250 mg/kg p.o. daily×10): 14 | Ulcer Grade 2 (number of rats) (acetic acid ulcers; 250 mg/kg p.o. daily×10): 0 | Ulcer Grade 3 (number of rats) (acetic acid ulcers; 250 mg/kg p.o. daily×10): 3 | Ulcer Grade 4 (number of rats) (acetic acid ulcers; 250 mg/kg p.o. daily×10): 1 | Ulcer Grade 5 (number of rats) (acetic acid ulcers; 250 mg/kg p.o. daily×10): 0 | Ulcer Grade 1 (number of rats) (acetic acid ulcers; 500 mg/kg p.o. daily×10): 12 | Ulcer Grade 2 (number of rats) (acetic acid ulcers; 500 mg/kg p.o. daily×10): 3 | Ulcer Grade 3 (number of rats) (acetic acid ulcers; 500 mg/kg p.o. daily×10): 2 | Ulcer Grade 4 (number of rats) (acetic acid ulcers; 500 mg/kg p.o. daily×10): 0 | Ulcer Grade 5 (number of rats) (acetic acid ulcers; 500 mg/kg p.o. daily×10): 1

CCOc1ccccc1OC(=O)[C@H]1CC[C@H](CNC(=N)N)CC1 [Compound 4]
Inhibition (%) Trypsin (trypsin): 22% | Inhibition (%) Chymotrypsin (chymotrypsin): 28% | Inhibition (%) Thrombin (thrombin): 35% | Inhibition (%) Urokinase (urokinase): 84%

N=C(N)NC[C@H]1CC[C@H](C(=O)Oc2ccccc2C(=O)Oc2ccccc2)CC1 [Compound 5]
Inhibition (%) Trypsin (trypsin): 38% | Inhibition (%) Chymotrypsin (chymotrypsin): 90% | Inhibition (%) Thrombin (thrombin): 34% | Inhibition (%) Urokinase (urokinase): 35%

CCOC(=O)c1ccc(OC(=O)[C@H]2CC[C@H](CNC(=N)N)CC2)cc1 [Compound 6]
Inhibition (%) Trypsin (trypsin): 25% | Inhibition (%) Chymotrypsin (chymotrypsin): 70% | Inhibition (%) Thrombin (thrombin): 39% | Inhibition (%) Urokinase (urokinase): 50%

Cl.N=C(N)NC[C@H]1CC[C@H](C(=O)Oc2cccnc2)CC1 [Compound 7, 3pyridyl trans4-guanidinomethylcyclohexanecarboxylate hydrochloride]
Inhibition (%) Trypsin (trypsin): 23% | Inhibition (%) Chymotrypsin (chymotrypsin): 70% | Inhibition (%) Thrombin (thrombin): 32% | Inhibition (%) Urokinase (urokinase): 67%

CCOC(=O)CCc1ccc(OC(=O)[C@H]2CC[C@H](CNC(=N)N)CC2)cc1 [Compound 8]
Inhibition (%) Trypsin (trypsin): 51% | Inhibition (%) Chymotrypsin (chymotrypsin): 20% | Inhibition (%) Thrombin (thrombin): 43% | Inhibition (%) Urokinase (urokinase): 55% | Ulcer Grade 0 (number of rats) (Shay ulcers; 200 mg/kg i.p.): 4 | Ulcer Grade 1 (number of rats) (Shay ulcers; 200 mg/kg i.p.): 2 | Ulcer Grade 2 (number of rats) (Shay ulcers; 200 mg/kg i.p.): 2 | Ulcer Grade 3 (number of rats) (Shay ulcers; 200 mg/kg i.p.): 1 | Ulcer Grade 4 (number of rats) (Shay ulcers; 200 mg/kg i.p.): 1 | Ulcer Grade 5 (number of rats) (Shay ulcers; 200 mg/kg i.p.): 0 | Ulcer Grade 1 (number of rats) (acetic acid ulcers; 300 mg/kg p.o. daily×10): 4 | Ulcer Grade 2 (number of rats) (acetic acid ulcers; 300 mg/kg p.o. daily×10): 3 | Ulcer Grade 3 (number of rats) (acetic acid ulcers; 300 mg/kg p.o. daily×10): 1 | Ulcer Grade 4 (number of rats) (acetic acid ulcers; 300 mg/kg p.o. daily×10): 0 | Ulcer Grade 5 (number of rats) (acetic acid ulcers; 300 mg/kg p.o. daily×10): 0

CCOC(=O)c1ccccc1OC(=O)[C@H]1CC[C@H](CNC(=N)N)CC1 [Compound 9]
Inhibition (%) Trypsin (trypsin): 28% | Inhibition (%) Chymotrypsin (chymotrypsin): 60% | Inhibition (%) Thrombin (thrombin): 29% | Inhibition (%) Urokinase (urokinase): 50% | Ulcer Grade 1 (number of rats) (acetic acid ulcers; 125 mg/kg p.o. daily×10): 11 | Ulcer Grade 2 (number of rats) (acetic acid ulcers; 125 mg/kg p.o. daily×10): 3 | Ulcer Grade 3 (number of rats) (acetic acid ulcers; 125 mg/kg p.o. daily×10): 1 | Ulcer Grade 4 (number of rats) (acetic acid ulcers; 125 mg/kg p.o. daily×10): 1 | Ulcer Grade 5 (number of rats) (acetic acid ulcers; 125 mg/kg p.o. daily×10): 1 | Ulcer Grade 1 (number of rats) (acetic acid ulcers; 250 mg/kg p.o. daily×10): 11 | Ulcer Grade 2 (number of rats) (acetic acid ulcers; 250 mg/kg p.o. daily×10): 2 | Ulcer Grade 3 (number of rats) (acetic acid ulcers; 250 mg/kg p.o. daily×10): 1 | Ulcer Grade 4 (number of rats) (acetic acid ulcers; 250 mg/kg p.o. daily×10): 0 | Ulcer Grade 5 (number of rats) (acetic acid ulcers; 250 mg/kg p.o. daily×10): 0 | Ulcer Grade 1 (number of rats) (acetic acid ulcers; 500 mg/kg p.o. daily×10): 12 | Ulcer Grade 2 (number of rats) (acetic acid ulcers; 500 mg/kg p.o. daily×10): 2 | Ulcer Grade 3 (number of rats) (acetic acid ulcers; 500 mg/kg p.o. daily×10): 1 | Ulcer Grade 4 (number of rats) (acetic acid ulcers; 500 mg/kg p.o. daily×10): 0 | Ulcer Grade 5 (number of rats) (acetic acid ulcers; 500 mg/kg p.o. daily×10): 0

N=C(N)NC[C@H]1CC[C@H](C(=O)Oc2ccccc2C(=O)O)CC1 [Compound 10]
Ulcer Grade 1 (number of rats) (acetic acid ulcers; 300 mg/kg p.o. daily×10): 4 | Ulcer Grade 2 (number of rats) (acetic acid ulcers; 300 mg/kg p.o. daily×10): 2 | Ulcer Grade 3 (number of rats) (acetic acid ulcers; 300 mg/kg p.o. daily×10): 1 | Ulcer Grade 4 (number of rats) (acetic acid ulcers; 300 mg/kg p.o. daily×10): 0 | Ulcer Grade 5 (number of rats) (acetic acid ulcers; 300 mg/kg p.o. daily×10): 2 | Ulcer Grade 1 (number of rats) (acetic acid ulcers; 500 mg/kg p.o. daily×10): 4 | Ulcer Grade 2 (number of rats) (acetic acid ulcers; 500 mg/kg p.o. daily×10): 3 | Ulcer Grade 3 (number of rats) (acetic acid ulcers; 500 mg/kg p.o. daily×10): 1 | Ulcer Grade 4 (number of rats) (acetic acid ulcers; 500 mg/kg p.o. daily×10): 0 | Ulcer Grade 5 (number of rats) (acetic acid ulcers; 500 mg/kg p.o. daily×10): 0

CN1[C@@H]2CC[C@H]1C[C@@H](OC(=O)C(CO)c1ccccc1)C2 (stereo partly shown) [Compound B, atropine sulfate, reference compound]
Ulcer Grade 0 (number of rats) (Shay ulcers; 12.5 mg/kg i.p.): 2 | Ulcer Grade 1 (number of rats) (Shay ulcers; 12.5 mg/kg i.p.): 1 | Ulcer Grade 2 (number of rats) (Shay ulcers; 12.5 mg/kg i.p.): 0 | Ulcer Grade 3 (number of rats) (Shay ulcers; 12.5 mg/kg i.p.): 1 | Ulcer Grade 4 (number of rats) (Shay ulcers; 12.5 mg/kg i.p.): 3 | Ulcer Grade 5 (number of rats) (Shay ulcers; 12.5 mg/kg i.p.): 3 | Titratable Pepsin Output (gastric secretion; 3 hours): 3.3 ± 0.9 mg | Titratable Pepsin Output % change (gastric secretion; 3 hours): 43.1% | Titratable Pepsin Output (gastric secretion; 6 hours): 9.7 ± 1.6 mg | Titratable Pepsin Output % change (gastric secretion; 6 hours): 55.3% | Titratable Pepsin Output (gastric secretion; 12 hours): 34.2 ± 1.4 mg | Titratable Pepsin Output % change (gastric secretion; 12 hours): 41.0%

Cc1c(C)c2c(c(C)c1OC(=O)[C@H]1CC[C@H](CNC(=N)N)CC1)CCC(C)(CCCC(C)CCCC(C)CCCC(C)C)O2 (stereo partly shown) [Example 1]
inhibition at 100 µM (trypsin; 0.1 mM, read-out: inhibited hydrolytic activity by trypsin): ~50% | inhibition at 100 µM (thrombin; 0.1 mM, read-out: inhibited hydrolytic activity by thrombin): ~50%

N=C(N)NC[C@H]1CC[C@H](C(=O)Oc2ccccc2C=O)CC1 [Example 19]
inhibition at 100 µM (urokinase): 56%

COc1ccccc1OC(=O)[C@H]1CC[C@H](CNC(=N)N)CC1 [Example 20]
inhibition at 100 µM (urokinase): 50%

COc1ccc(OC(=O)[C@H]2CC[C@H](CNC(=N)N)CC2)cc1 [Example 21]
inhibition at 100 µM (urokinase): 52%

CC(=O)c1ccccc1OC(=O)[C@H]1CC[C@H](CNC(=N)N)CC1 [Example 23, 2'-Acetylphenyl trans-4-guanidomethycylohexanecarboxylate hydrochloride]
inhibition at 50 µM (chymotrypsin; 0.05 mM, read-out: inhibited hydrolytic activity by chymotrypsin): 50%
